Calls of active or inactive are those of the source. No cut-off for these calls is given here.
Columns and labels:
[1] = system: RAW264.7; assay: Anti-inflammatory activity in mouse RAW264.7 cells assessed as reduction in LPS-induced IL-6 production after 48 hrs by ELISA; type: functional, cell-based; details: RAW264.7, 48 h
[2] = system: RAW264.7; assay: Anti-inflammatory activity in mouse RAW264.7 cells assessed as reduction in LPS-induced TNF-alpha production after 48 hrs by ELISA; type: functional, cell-based; details: RAW264.7, 48 h
[3] = system: NCI-H1975; assay: cells; details: Homo sapiens, NCI-H1975, 72 h
Description: Cytotoxicity against human NCI-H1975 cells after 72 hrs by MTT assay

[4] = system: PC-9; assay: Cytotoxicity against human PC9 cells at 80 uM after 72 hrs by MTT assay; type: cell-based; details: pc-9, 72 h
[5] = system: Jurkat; assay: cells; details: Homo sapiens, 48 h
Description: Immunosuppressive activity in human Jurkat cells assessed as reduction in PHA + PMA-induced IL-2 production after 48 hrs by ELISA

[6] = system: NCI-H1975; assay: Cytotoxicity against human NCI-H1975 cells at 80 uM after 72 hrs by MTT assay; type: cell-based; details: nci-h1975, 72 h
[7] = system: HepG2; assay: Cytotoxicity against human HepG2 cells at 80 uM after 72 hrs by MTT assay; type: cell-based; details: hepg2, 72 h
[8] = molecular target: T1, Acetylcholinesterase (Homo sapiens, UniProt P22303); assay: Inhibition of AChE (unknown origin) using acetylthiocholine iodide as substrate preincubated for 20 mins followed by substrate addition and measured every 30 secs for 1 hr by Ellman's assay
[9] = system: PC-9; assay: Cytotoxicity against human PC9 cells after 72 hrs by MTT assay; type: cell-based; details: PC-9, 72 h
[10] = system: HepG2; assay: cells; details: Homo sapiens, HepG2, 72 h
Description: Cytotoxicity against human HepG2 cells after 72 hrs by MTT assay

[11] = molecular target: T1, Acetylcholinesterase; assay: Inhibition of AChE (unknown origin) at 250 uM using acetylthiocholine iodide as substrate preincubated for 20 mins followed by substrate addition and measured every 30 secs for 1 hr by Ellman's assay
[12] = system: Jurkat; assay: Immunosuppressive activity in human Jurkat cells assessed as reduction in PHA + PMA-induced IL-2 production at 20 uM after 48 hrs by ELISA; type: functional, cell-based

T1 sequence (P22303 whole entry): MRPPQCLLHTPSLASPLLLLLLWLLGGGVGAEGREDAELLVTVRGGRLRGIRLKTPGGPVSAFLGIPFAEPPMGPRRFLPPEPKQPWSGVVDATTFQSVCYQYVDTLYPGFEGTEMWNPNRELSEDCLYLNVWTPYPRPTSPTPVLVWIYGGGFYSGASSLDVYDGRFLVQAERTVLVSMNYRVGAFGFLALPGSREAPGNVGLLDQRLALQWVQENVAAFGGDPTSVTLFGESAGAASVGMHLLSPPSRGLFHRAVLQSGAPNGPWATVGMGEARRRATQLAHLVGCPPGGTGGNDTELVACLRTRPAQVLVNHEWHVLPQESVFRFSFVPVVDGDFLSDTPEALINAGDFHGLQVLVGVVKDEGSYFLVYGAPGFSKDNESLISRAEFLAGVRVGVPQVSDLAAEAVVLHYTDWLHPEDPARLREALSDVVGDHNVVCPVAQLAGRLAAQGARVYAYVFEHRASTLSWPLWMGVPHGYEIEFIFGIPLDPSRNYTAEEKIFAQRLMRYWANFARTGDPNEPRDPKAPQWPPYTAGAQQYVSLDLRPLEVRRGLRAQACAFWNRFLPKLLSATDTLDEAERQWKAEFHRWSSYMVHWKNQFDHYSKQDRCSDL

Q: What does the source list for `C[C@@H]1C[C@H]2[C@@H]3CCC4=CC(=O)C=C[C@]4(C)[C@@]3(F)[C@@H](O)C[C@]2(C)[C@@]1(O)C(=O)CO` [DEXAMETHASONE]?
A: IC50 [1]: 9.4 µM; IC50 [2]: 1.2 µM

Q: Which results are given for `COc1ccc(-c2cc(=O)c3cc(OC)c(O)c([C@@H]4CCC(=O)N4)c3o2)cc1`?
A: IC50 [3]: > 80 µM; Activity [4]: Non-Toxic; IC50 [5]: > 20 µM; IC50 [1]: > 20 µM; IC50 [2]: > 20 µM; Activity [6]: Non-Toxic; Activity [7]: Non-Toxic; IC50 [8]: 68 µM; IC50 [9]: > 80 µM; IC50 [10]: > 80 µM

Q: What does the source list for `CC(=O)O[C@H]1C(=O)[C@@]2(C)[C@H]([C@H](OC(=O)c3ccccc3)[C@]3(O)C[C@H](OC(=O)[C@H](O)[C@@H](NC(=O)c4ccccc4)c4ccccc4)C(C)=C1C3(C)C)[C@]1(OC(C)=O)CO[C@@H]1C[C@@H]2O` [PACLITAXEL]?
A: IC50 [3]: 3.9 µM; IC50 [9]: 3.7 µM; IC50 [10]: 10.3 µM

Q: Which IC50 [3] does the source give for `COc1ccc(-c2cc(=O)c3c(O)c(OC)c(O)cc3o2)cc1` [PECTOLINARIGENIN] here?
A: 76.6 µM

Q: What about the inhibition [11] of the same molecule?
A: 37.8%

Q: And the IC50 [5]?
A: > 20 µM

Q: And the IC50 [1]?
A: > 20 µM

Q: And the IC50 [2]?
A: > 20 µM

Q: And the inhibition [12]?
A: inactive

Q: And the IC50 [8]?
A: > 250 µM

Q: What about the IC50 [9] of the same molecule?
A: > 80 µM

Q: What about the IC50 [10] of the same molecule?
A: 18.1 µM

Q: Which results are given for `COc1ccc(-c2cc(=O)c3cc(OC)c(O)c([C@H]4CCC(=O)N4)c3o2)cc1`?
A: IC50 [3]: > 80 µM; IC50 [5]: 16.5 µM; IC50 [1]: > 20 µM; IC50 [2]: > 20 µM; IC50 [8]: 18.3 µM; IC50 [9]: > 80 µM; IC50 [10]: 52.9 µM

Source: ChEMBL document CHEMBL4308916, “Leucoflavonine, a new bioactive racemic flavoalkaloid from the leaves of Leucosceptrum canum” (Bioorg Med Chem, 2019)
